Reference: US9486506B2 (Novo Nordisk A/S, priority 2011, dated 2016)
Numbered stars: 1 amine (or outer) side, 2 acyl side, 3 side chain; on linkers, the order of the positions; unused ones are H or OH. Side chains are listed from the residue outwards. Peptide text beside a SMILES is read from it. * marks the point of attachment. C18 diacid = O=C(O)CCCCCCCCCCCCCCCCC(=O)*; C16 diacid = O=C(O)CCCCCCCCCCCCCCC(=O)*; γGlu = O=C(O)[C@H](CCC(=O)[*:2])N[*:1]; AEEA = NCCOCCOCC(=O)O

How the values were obtained:
glucagon receptor = molecular target: T1, glucagon receptor (Homo sapiens, UniProt P47871); experiment: Assay (I) Glucagon activity (cAMP biosensor, FLIPR); format: cell-based
T1 construct: expressed in transfected cells
T1 sequence (P47871 26-477): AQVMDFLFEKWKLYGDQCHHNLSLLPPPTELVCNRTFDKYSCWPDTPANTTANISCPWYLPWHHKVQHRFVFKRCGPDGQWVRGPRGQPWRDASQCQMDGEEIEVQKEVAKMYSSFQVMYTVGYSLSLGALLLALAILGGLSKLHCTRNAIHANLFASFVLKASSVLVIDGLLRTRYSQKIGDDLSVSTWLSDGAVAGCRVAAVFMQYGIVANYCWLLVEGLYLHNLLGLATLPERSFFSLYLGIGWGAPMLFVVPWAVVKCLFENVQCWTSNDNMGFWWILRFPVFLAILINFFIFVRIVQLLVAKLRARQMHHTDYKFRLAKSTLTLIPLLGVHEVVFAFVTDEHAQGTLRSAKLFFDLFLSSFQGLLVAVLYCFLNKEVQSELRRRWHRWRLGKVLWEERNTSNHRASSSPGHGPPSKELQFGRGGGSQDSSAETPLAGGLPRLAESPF

[1] = Assay (X) Chemical stability assessment by RP-UPLC; format: physicochemical; details: pH 8.15, 14 days at 37° C. vs 5° C., 333 μM

SMILES	EC50 (glucagon receptor) [nM]	Chemical stability [Purity loss/14 days 37 C.] [1] [%]
CC[C@H](C)[C@H](NC(=O)[C@H](CC(=O)O)NC(=O)[C@H](CC(C)C)NC(=O)[C@H](Cc1ccc(O)cc1)NC(=O)[C@H](CCCNC(=N)N)NC(=O)[C@H](CO)NC(=O)[C@H](Cc1ccc(O)cc1)NC(=O)[C@H](CC(=O)O)NC(=O)[C@H](CO)NC(=O)[C@@H](NC(=O)[C@H](Cc1ccccc1)NC(=O)[C@@H](NC(=O)CNC(=O)[C@H](CCC(N)=O)NC(=O)[C@H](CO)NC(=O)[C@@H](N)Cc1c[nH]cn1)[C@@H](C)O)[C@@H](C)O)C(=O)N[C@@H](CCCNC(=N)N)C(=O)N[C@@H](CCCNC(=N)N)C(=O)N[C@@H](C)C(=O)N[C@@H](CCC(N)=O)C(=O)N[C@@H](CCC(=O)O)C(=O)N[C@@H](Cc1ccccc1)C(=O)N[C@H](C(=O)N[C@@H](CCCCNC(=O)CC[C@H](NC(=O)CC[C@H](NC(=O)COCCOCCNC(=O)COCCOCCNC(=O)CC[C@H](NC(=O)CCCCCCCCCCCCCCCCC(=O)O)C(=O)O)C(=O)O)C(=O)O)C(=O)N[C@@H](Cc1c[nH]c2ccccc12)C(=O)N[C@@H](CC(C)C)C(=O)N[C@@H](CCC(=O)O)C(=O)N[C@@H](CO)C(=O)N[C@H](C(=O)O)[C@@H](C)O)C(C)C [Example 53, N^ε24-[(4S)-4-carboxy-4-[[(4S)-4-carboxy-4-[[2-[2-[2-[[2-[2-[2-[[(4S)-4-carboxy-4-(17-carboxyheptadecanoylamino)butanoyl]amino]ethoxy]ethoxy]acetyl]amino]ethoxy]ethoxy]acetyl]amino]butanoyl]amino]butanoyl]-[Arg12,Ile16,Glu21,Lys24,Glu27,Ser28]-Glucagon] (H-HSQGTFTSDYSRYLDIRRAQEFVK([γGlu-γGlu-AEEA-AEEA-γGlu-C18 diacid])WLEST-OH)	0.099	2.5
CC(C)C[C@H](NC(=O)[C@H](Cc1ccc(O)cc1)NC(=O)[C@H](CCCCN)NC(=O)[C@H](CO)NC(=O)[C@H](Cc1ccc(O)cc1)NC(=O)[C@H](CC(=O)O)NC(=O)[C@H](CO)NC(=O)[C@@H](NC(=O)[C@H](Cc1ccccc1)NC(=O)[C@@H](NC(=O)CNC(=O)[C@H](CCC(N)=O)NC(=O)[C@H](CO)NC(=O)[C@@H](N)Cc1c[nH]cn1)[C@@H](C)O)[C@@H](C)O)C(=O)N[C@@H](CCC(=O)O)C(=O)N[C@@H](CO)C(=O)N[C@@H](CCCNC(=N)N)C(=O)N[C@@H](CCCNC(=N)N)C(=O)N[C@@H](C)C(=O)N[C@@H](CCC(N)=O)C(=O)N[C@@H](CC(=O)O)C(=O)N[C@@H](Cc1ccccc1)C(=O)N[C@H](C(=O)N[C@@H](CCCCNC(=O)CC[C@H](NC(=O)CC[C@H](NC(=O)COCCOCCNC(=O)COCCOCCNC(=O)CC[C@H](NC(=O)CCCCCCCCCCCCCCC(=O)O)C(=O)O)C(=O)O)C(=O)O)C(=O)N[C@@H](Cc1c[nH]c2ccccc12)C(=O)N[C@@H](CC(C)C)C(=O)N[C@@H](CC(C)C)C(=O)N[C@@H](CO)C(=O)N[C@H](C(=O)O)[C@@H](C)O)C(C)C [Example 69, N^ε24-[(4S)-4-carboxy-4-[[(4S)-4-carboxy-4-[[2-[2-[2-[[2-[2-[2-[[(4S)-4-carboxy-4-(15-carboxypentadecanoylamino)butanoyl]amino]ethoxy]ethoxy]acetyl]amino]ethoxy]ethoxy]acetyl]amino]butanoyl]amino]butanoyl]-[Glu15,Lys24,Leu27,Ser28]-Glucagon]	0.071	8.2
CC(C)C[C@H](NC(=O)[C@H](Cc1c[nH]c2ccccc12)NC(=O)[C@H](CCCCNC(=O)CC[C@H](NC(=O)CC[C@H](NC(=O)COCCOCCNC(=O)COCCOCCNC(=O)CC[C@H](NC(=O)CCCCCCCCCCCCCCCCC(=O)O)C(=O)O)C(=O)O)C(=O)O)NC(=O)[C@@H](NC(=O)[C@H](Cc1ccccc1)NC(=O)[C@H](CC(=O)O)NC(=O)[C@H](CCC(N)=O)NC(=O)[C@H](C)NC(=O)[C@H](CCCNC(=N)N)NC(=O)[C@H](CCCNC(=N)N)NC(=O)[C@@H](NC(=O)[C@H](CCC(=O)O)NC(=O)[C@H](CC(C)C)NC(=O)[C@H](Cc1ccc(O)cc1)NC(=O)[C@H](CCCCN)NC(=O)[C@H](CO)NC(=O)[C@H](Cc1ccc(O)cc1)NC(=O)[C@H](CC(=O)O)NC(=O)[C@H](CO)NC(=O)[C@@H](NC(=O)[C@H](Cc1ccccc1)NC(=O)[C@@H](NC(=O)CNC(=O)[C@H](Cc1c[nH]cn1)NC(=O)[C@H](CO)NC(=O)[C@@H](N)Cc1c[nH]cn1)[C@@H](C)O)[C@@H](C)O)[C@@H](C)O)C(C)C)C(=O)N[C@@H](CC(C)C)C(=O)N[C@@H](CC(N)=O)C(=O)N[C@H](C(=O)O)[C@@H](C)O [Example 9, N^ε24-[(4S)-4-carboxy-4-[[(4S)-4-carboxy-4-[[2-[2-[2-[[2-[2-[2-[[(4S)-4-carboxy-4-(17-carboxyheptadecanoylamino)butanoyl]amino]ethoxy]ethoxy]acetyl]amino]ethoxy]ethoxy]acetyl]amino]butanoyl]amino]butanoyl]-[His^3,Glu^15,Thr^16,Lys^24,Leu^27]-Glucagon] (H-HSHGTFTSDYSKYLETRRAQDFVK([γGlu-γGlu-AEEA-AEEA-γGlu-C18 diacid])WLLNT-OH)	0.036	10
CC(C)C[C@H](NC(=O)[C@H](CC(C)C)NC(=O)[C@H](Cc1c[nH]c2ccccc12)NC(=O)[C@H](CCCCNC(=O)CC[C@H](NC(=O)CC[C@H](NC(=O)COCCOCCNC(=O)COCCOCCNC(=O)CC[C@H](NC(=O)CCCCCCCCCCCCCCC(=O)O)C(=O)O)C(=O)O)C(=O)O)NC(=O)[C@@H](NC(=O)[C@H](Cc1ccccc1)NC(=O)[C@H](CC(=O)O)NC(=O)[C@H](CCC(N)=O)NC(=O)[C@H](C)NC(=O)[C@H](CCCNC(=N)N)NC(=O)[C@H](CCCNC(=N)N)NC(=O)[C@H](CC(C)C)NC(=O)[C@H](CC(=O)O)NC(=O)[C@H](CC(C)C)NC(=O)[C@H](Cc1ccc(O)cc1)NC(=O)[C@H](CCCNC(=N)N)NC(=O)[C@H](CO)NC(=O)[C@H](Cc1ccc(O)cc1)NC(=O)[C@H](CC(=O)O)NC(=O)[C@H](CO)NC(=O)[C@@H](NC(=O)[C@H](Cc1ccccc1)NC(=O)[C@@H](NC(=O)CNC(=O)[C@H](CCC(N)=O)NC(=O)[C@H](CO)NC(=O)[C@@H](N)Cc1c[nH]cn1)[C@@H](C)O)[C@@H](C)O)C(C)C)C(=O)N[C@@H](C)C(=O)N[C@H](C(=O)O)[C@@H](C)O [Example 89, N^ε24-[(4S)-4-carboxy-4-[[(4S)-4-carboxy-4-[[2-[2-[2-[[2-[2-[2-[[(4S)-4-carboxy-4-(15-carboxypentadecanoylamino)butanoyl]amino]ethoxy]ethoxy]acetyl]amino]ethoxy]ethoxy]acetyl]amino]butanoyl]amino]butanoyl]-[Arg12,Leu16,Lys24,Leu27,Ala28]-Glucagon] (H-HSQGTFTSDYSRYLDLRRAQDFVK([γGlu-γGlu-AEEA-AEEA-γGlu-C16 diacid])WLLAT-OH)	0.064	6.8
CC(C)C[C@H](NC(=O)[C@H](Cc1c[nH]c2ccccc12)NC(=O)[C@H](CCCCNC(=O)COCCOCCNC(=O)COCCOCCNC(=O)CC[C@H](NC(=O)CC[C@H](NC(=O)CC[C@H](NC(=O)CCCCCCCCCCCCCCCCC(=O)O)C(=O)O)C(=O)O)C(=O)O)NC(=O)[C@@H](NC(=O)[C@H](Cc1ccccc1)NC(=O)[C@H](CCC(=O)O)NC(=O)[C@H](CCC(N)=O)NC(=O)[C@H](C)NC(=O)[C@H](CCCNC(=N)N)NC(=O)[C@H](CCCNC(=N)N)NC(=O)[C@@H](NC(=O)[C@H](CC(=O)O)NC(=O)[C@H](CC(C)C)NC(=O)[C@H](Cc1ccc(O)cc1)NC(=O)[C@H](CCCCN)NC(=O)[C@H](CO)NC(=O)[C@@H](NC(=O)[C@H](CC(=O)O)NC(=O)[C@H](CO)NC(=O)[C@@H](NC(=O)[C@H](Cc1ccccc1)NC(=O)[C@@H](NC(=O)CNC(=O)[C@H](CCC(N)=O)NC(=O)[C@H](CO)NC(=O)[C@@H](N)Cc1c[nH]cn1)[C@@H](C)O)[C@@H](C)O)C(C)C)[C@@H](C)O)C(C)C)C(=O)N[C@@H](CC(C)C)C(=O)N[C@@H](CO)C(=O)N[C@H](C(=O)O)[C@@H](C)O [Example 62, N^ε24-[2-[2-[2-[[2-[2-[2-[[(4S)-4-carboxy-4-[[(4S)-4-carboxy-4-[[(4S)-4-carboxy-4-(17-carboxyheptadecanoylamino)butanoyl]amino]butanoyl]amino]butanoyl]amino]ethoxy]ethoxy]acetyl]amino]ethoxy]ethoxy]acetyl]-[Val10,Thr16,Glu21,Lys24,Leu27,Ser28]-Glucagon] (H-HSQGTFTSDVSKYLDTRRAQEFVK([AEEA-AEEA-γGlu-γGlu-γGlu-C18 diacid])WLLST-OH)	0.08	5.6
CC(C)C[C@H](NC(=O)[C@H](Cc1ccc(O)cc1)NC(=O)[C@H](CCCCN)NC(=O)[C@H](CO)NC(=O)[C@H](Cc1ccc(O)cc1)NC(=O)[C@H](CC(=O)O)NC(=O)[C@H](CO)NC(=O)[C@@H](NC(=O)[C@H](Cc1ccccc1)NC(=O)[C@@H](NC(=O)CNC(=O)[C@H](CCC(N)=O)NC(=O)[C@H](CO)NC(=O)[C@@H](N)Cc1c[nH]cn1)[C@@H](C)O)[C@@H](C)O)C(=O)N[C@@H](CCC(=O)O)C(=O)N[C@@H](CO)C(=O)N[C@@H](CCCNC(=N)N)C(=O)N[C@@H](CCCNC(=N)N)C(=O)N[C@@H](C)C(=O)N[C@@H](CCC(N)=O)C(=O)N[C@@H](CC(=O)O)C(=O)N[C@@H](Cc1ccccc1)C(=O)N[C@H](C(=O)N[C@@H](CCCCNC(=O)CC[C@H](NC(=O)CC[C@H](NC(=O)COCCOCCNC(=O)CC[C@H](NC(=O)CCCCCCCCCCCCCCCCC(=O)O)C(=O)O)C(=O)O)C(=O)O)C(=O)N[C@@H](Cc1c[nH]c2ccccc12)C(=O)N[C@@H](CC(C)C)C(=O)N[C@@H](CC(C)C)C(=O)N[C@@H](CO)C(=O)N[C@H](C(=O)O)[C@@H](C)O)C(C)C [Example 1, N^ε24-[(4S)-4-carboxy-4-[[(4S)-4-carboxy-4-[[2-[2-[2-[[(4S)-4-carboxy-4-(17-carboxyheptadecanoylamino)butanoyl]amino]ethoxy]ethoxy]acetyl]amino]butanoyl]amino]butanoyl]-[Glu^15,Lys^24,Leu^27,Ser^28]-Glucagon]	0.28	7.6
